As usually defined, the AC50 is the concentration at which the activity in the assay is half-maximal.

Here are results for 25 molecules from patent US20230365592A1 (Agios Pharmaceuticals, Inc., priority 2022, published 2023).

This assay has as its target T1, human PAH with the R408W mutation (Homo sapiens, UniProt P00439, R408W).
T1 construct: expressed in transfected cells
T1 sequence (P00439 1-452 R408W): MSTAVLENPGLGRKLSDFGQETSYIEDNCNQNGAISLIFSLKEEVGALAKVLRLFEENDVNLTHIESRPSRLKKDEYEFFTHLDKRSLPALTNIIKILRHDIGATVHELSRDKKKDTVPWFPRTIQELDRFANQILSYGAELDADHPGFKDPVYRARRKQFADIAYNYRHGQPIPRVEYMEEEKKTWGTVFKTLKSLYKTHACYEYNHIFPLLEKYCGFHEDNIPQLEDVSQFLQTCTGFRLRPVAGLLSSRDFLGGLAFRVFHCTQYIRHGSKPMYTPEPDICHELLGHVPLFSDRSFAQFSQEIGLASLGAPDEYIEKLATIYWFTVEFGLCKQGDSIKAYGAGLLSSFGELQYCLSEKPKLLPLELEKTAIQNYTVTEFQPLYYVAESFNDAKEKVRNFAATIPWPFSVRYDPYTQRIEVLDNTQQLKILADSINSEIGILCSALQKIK
Put plainly: Cell Based Phenylalanine Flux Assay.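 Further: after compound treatment, cells received sepiapterin plus isotope-labelled Phenylalanine for 4 hours, then labelled Tyrosine in the medium was quantified, 10-point 2-fold dilution series run in duplicate.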 Conditions: A375 cells expressing human PAH R408W; 24 hrs compound incubation; 13C-Tyrosine by LC-MS; average where tested multiple times; read-out: AC50.
With `FC(F)(F)Oc1cccn2nc([C@@H]3c4nc[nH]c4CCN3c3ccc(C(F)(F)F)cn3)cc12` [Example 2348, (S)-4-(4-(trifluoromethoxy)pyrazolo[1,5-a]pyridin-2-yl)-5-(5-(trifluoromethyl)pyridin-2-yl)-4,5,6,7-tetrahydro-1H-imidazo[4,5-c]pyridine], the AC50 was in the range of 0.5 to 1 µM.
Consider `Fc1ncccc1-c1nnc(N2CCc3[nH]cnc3[C@H]2c2cc3c(Cl)cccn3n2)o1` [Example 2350, (S)-2-(4-(4-chloropyrazolo[1,5-a]pyridin-2-yl)-1,4,6,7-tetrahydro-5H-imidazo[4,5-c]pyridin-5-yl)-5-(2-fluoropyridin-3-yl)-1,3,4-oxadiazole], for which the AC50 lay in the range of 0.5 to 1 µM.
The figure for `CC(C)c1cccn2nc([C@H]3c4nc[nH]c4CCN3c3nnc(-c4ncccc4F)o3)cc12` [Example 2354, (R)-2-(3-fluoropyridin-2-yl)-5-(4-(4-isopropylpyrazolo[1,5-a]pyridin-2-yl)-1,4,6,7-tetrahydro-5H-imidazo[4,5-c]pyridin-5-yl)-1,3,4-oxadiazole] is above 5 µM.
The figure for `CC(C)c1cccn2nc([C@@H]3c4nc[nH]c4CCN3c3nnc(-c4ncccc4F)o3)cc12` [Example 2355, (S)-2-(3-fluoropyridin-2-yl)-5-(4-(4-isopropylpyrazolo[1,5-a]pyridin-2-yl)-1,4,6,7-tetrahydro-5H-imidazo[4,5-c]pyridin-5-yl)-1,3,4-oxadiazole] is 0.5 to 1 µM; for `Cc1cccc(-c2nnc(N3CCc4[nH]cnc4[C@H]3c3cc4c(C(F)(F)F)cccn4n3)o2)n1` [Example 2357, (S)-2-(6-methylpyridin-2-yl)-5-(4-(4-(trifluoromethyl)pyrazolo[1,5-a]pyridin-2-yl)-1,4,6,7-tetrahydro-5H-imidazo[4,5-c]pyridin-5-yl)-1,3,4-oxadiazole] it is 0.5 to 1 µM.
Turning to `Cc1cccc(-c2nnc(N3CCc4[nH]cnc4[C@@H]3c3cc4c(C5CC5)cccn4n3)o2)n1` [Example 2358, (R)-2-(4-(4-cyclopropylpyrazolo[1,5-a]pyridin-2-yl)-1,4,6,7-tetrahydro-5H-imidazo[4,5-c]pyridin-5-yl)-5-(6-methylpyridin-2-yl)-1,3,4-oxadiazole], the AC50 is above 5 µM.
The figure for `Cc1cccc(-c2nnc(N3CCc4[nH]cnc4[C@H]3c3cc4c(C5CC5)cccn4n3)o2)n1` [Example 2359, (S)-2-(4-(4-cyclopropylpyrazolo[1,5-a]pyridin-2-yl)-1,4,6,7-tetrahydro-5H-imidazo[4,5-c]pyridin-5-yl)-5-(6-methylpyridin-2-yl)-1,3,4-oxadiazole] is 0.5 to 1 µM.
With `Cc1cccn2nc([C@H]3c4nc[nH]c4CCN3c3nnc(-c4cccc(F)n4)o3)cc12` [Example 2360, (R)-2-(6-fluoropyridin-2-yl)-5-(4-(4-methylpyrazolo[1,5-a]pyridin-2-yl)-1,4,6,7-tetrahydro-5H-imidazo[4,5-c]pyridin-5-yl)-1,3,4-oxadiazole] the figure was above 5 µM.
In the case of `Fc1cccc(-c2nnc(N3CCc4[nH]cnc4[C@H]3c3cc4c(C(F)(F)F)cccn4n3)o2)n1` [Example 2363, (S)-2-(6-fluoropyridin-2-yl)-5-(4-(4-(trifluoromethyl)pyrazolo[1,5-a]pyridin-2-yl)-1,4,6,7-tetrahydro-5H-imidazo[4,5-c]pyridin-5-yl)-1,3,4-oxadiazole], the AC50 was 0.5 to 1 µM.
For the molecule `O=C(c1nnc(-c2ccc(F)cn2)o1)N1CCc2[nH]cnc2[C@@H]1c1cc2ccccn2n1` [Example 2364, (R)-(5-(5-fluoropyridin-2-yl)-1,3,4-oxadiazol-2-yl)(4-(pyrazolo[1,5-a]pyridin-2-yl)-6,7-dihydro-1H-imidazo[4,5-c]pyridin-5(4H)-yl)methanone], the AC50 is above 5 µM.
Regarding `O=C(c1cnn(CC(F)(F)F)c1C(F)F)N1CCc2[nH]cnc2[C@H]1c1cc2ccccn2n1` [Example 2368, (S)-(5-(difluoromethyl)-1-(2,2,2-trifluoroethyl)-1H-pyrazol-4-yl)(4-(pyrazolo[1,5-a]pyridin-2-yl)-6,7-dihydro-1H-imidazo[4,5-c]pyridin-5(4H)-yl)methanone], the AC50 fell in the range of 1 to 5 µM.
`O=C(c1cnn(CC(F)(F)F)c1C(F)F)N1CCc2[nH]cnc2[C@@H]1c1cc2ccccn2n1` [Example 2369, (R)-(5-(difluoromethyl)-1-(2,2,2-trifluoroethyl)-1H-pyrazol-4-yl)(4-(pyrazolo[1,5-a]pyridin-2-yl)-6,7-dihydro-1H-imidazo[4,5-c]pyridin-5(4H)-yl)methanone]: the AC50 was above 5 µM.
`Nc1cc(C(=O)N2CCc3[nH]cnc3[C@H]2c2cc3ccccn3n2)n(C(F)F)n1` [Example 2370, (S)-(3-amino-1-(difluoromethyl)-1H-pyrazol-5-yl)(4-(pyrazolo[1,5-a]pyridin-2-yl)-6,7-dihydro-1H-imidazo[4,5-c]pyridin-5(4H)-yl)methanone]: the AC50 lay in the range of 1 to 5 µM.
The figure for `Cn1nc(C(F)(F)F)nc1C(=O)N1CCc2[nH]cnc2[C@H]1c1cc2ccccn2n1` [Example 2372, (S)-(1-methyl-3-(trifluoromethyl)-1H-1,2,4-triazol-5-yl)(4-(pyrazolo[1,5-a]pyridin-2-yl)-6,7-dihydro-1H-imidazo[4,5-c]pyridin-5(4H)-yl)methanone] is 1 to 5 µM; for `CC(C)(O)c1nnc(C(=O)N2CCc3[nH]cnc3[C@H]2c2cc3c(Cl)cccn3n2)o1` [Example 2378, (S)-(4-(4-chloropyrazolo[1,5-a]pyridin-2-yl)-6,7-dihydro-1H-imidazo[4,5-c]pyridin-5(4H)-yl)(5-(2-hydroxypropan-2-yl)-1,3,4-oxadiazol-2-yl)methanone] it is 1 to 5 µM; for `Cc1ccc2cc([C@@H]3c4nc[nH]c4CCN3C(=O)c3nnc(-c4cnn(C)c4)o3)nn2c1` [Example 2380, (S)-(5-(1-methyl-1H-pyrazol-4-yl)-1,3,4-oxadiazol-2-yl)(4-(6-methylpyrazolo[1,5-a]pyridin-2-yl)-6,7-dihydro-1H-imidazo[4,5-c]pyridin-5(4H)-yl)methanone] it is 1 to 5 µM.
Turning to `CC(C)(O)c1ncc(C(=O)N2CCc3[nH]cnc3[C@H]2c2cc3c(F)cccn3n2)o1` [Example 2382, (S)-(4-(4-fluoropyrazolo[1,5-a]pyridin-2-yl)-6,7-dihydro-1H-imidazo[4,5-c]pyridin-5(4H)-yl)(2-(2-hydroxypropan-2-yl)oxazol-5-yl)methanone], the AC50 lay within 1 to 5 µM.
Regarding `Cc1ccn2nc([C@@H]3c4nc[nH]c4CCN3C(=O)c3nnc(-c4ccccn4)o3)cc2c1` [Example 2384, (S)-(4-(5-methylpyrazolo[1,5-a]pyridin-2-yl)-6,7-dihydro-1H-imidazo[4,5-c]pyridin-5(4H)-yl)(5-(pyridin-2-yl)-1,3,4-oxadiazol-2-yl)methanone], the AC50 lay in the range of 1 to 5 µM.
Regarding `Cc1ccn2nc([C@H]3c4nc[nH]c4CCN3C(=O)c3nnc(-c4ccccn4)o3)cc2c1` [Example 2385, (R)-(4-(5-methylpyrazolo[1,5-a]pyridin-2-yl)-6,7-dihydro-1H-imidazo[4,5-c]pyridin-5(4H)-yl)(5-(pyridin-2-yl)-1,3,4-oxadiazol-2-yl)methanone], the AC50 is above 5 µM.
For `O=C(c1ccnn1C1CC1)N1CCc2[nH]cnc2[C@H]1c1cc2ccccn2n1` [Example 2386, (S)-(1-cyclopropyl-1H-pyrazol-5-yl)(4-(pyrazolo[1,5-a]pyridin-2-yl)-6,7-dihydro-1H-imidazo[4,5-c]pyridin-5(4H)-yl)methanone], the AC50 is 1 to 5 µM.
With `O=C(c1ccnn1-c1ccccn1)N1CCc2[nH]cnc2[C@H]1c1cc2c(F)cccn2n1` [Example 2388, (S)-(4-(4-fluoropyrazolo[1,5-a]pyridin-2-yl)-6,7-dihydro-1H-imidazo[4,5-c]pyridin-5(4H)-yl)(1-(pyridin-2-yl)-1H-pyrazol-5-yl)methanone] the figure was 1 to 5 µM.
The figure for `Cc1cc(C(=O)N2CCc3[nH]cnc3[C@H]2c2cc3c(F)cccn3n2)n(C)n1` [Example 2390, (S)-(1,3-dimethyl-1H-pyrazol-5-yl)(4-(4-fluoropyrazolo[1,5-a]pyridin-2-yl)-6,7-dihydro-1H-imidazo[4,5-c]pyridin-5(4H)-yl)methanone] is 1 to 5 µM; for `COc1cccn2nc([C@@H]3c4nc[nH]c4CCN3C(=O)c3nc(C)nn3C)cc12` [Example 2393, (S)-(1,3-dimethyl-1H-1,2,4-triazol-5-yl)(4-(4-methoxypyrazolo[1,5-a]pyridin-2-yl)-6,7-dihydro-1H-imidazo[4,5-c]pyridin-5(4H)-yl)methanone] it is 1 to 5 µM; for `Cc1cccc2cc([C@H]3c4nc[nH]c4CCN3C(=O)c3nnc(-c4cn(C)cn4)o3)nn12` [Example 2394, (R)-(5-(1-methyl-1H-imidazol-4-yl)-1,3,4-oxadiazol-2-yl)(4-(7-methylpyrazolo[1,5-a]pyridin-2-yl)-6,7-dihydro-1H-imidazo[4,5-c]pyridin-5(4H)-yl)methanone] it is above 5 µM.
For `Cc1cccc2cc([C@@H]3c4nc[nH]c4CCN3C(=O)c3nnc(-c4cn(C)cn4)o3)nn12` [Example 2395, (S)-(5-(1-methyl-1H-imidazol-4-yl)-1,3,4-oxadiazol-2-yl)(4-(7-methylpyrazolo[1,5-a]pyridin-2-yl)-6,7-dihydro-1H-imidazo[4,5-c]pyridin-5(4H)-yl)methanone], the AC50 was in the range of 1 to 5 µM.
